# Experimental data taken from patent publication US20240059703A1 (AMGEN INC., priority 2021, published 2024).
# Target: KRAS G12C (Homo sapiens (Human), UniProt P01116, C118A/G12C)
# Experiment: 2 h coupled exchange assay
# Assay type: biochemical
# Conditions: Avg 2 h Coupled exchange IC50, 2 h compound pre-incubation
# Protocol: The term “2 h coupled exchange assay” or “20 h coupled exchange assay” as used herein refers to the assay described in the Section entitled “BIOLOGICAL EVALUATION.”
# KRAS G12C, sequence (P01116 other isoform, or with tags, fused parts or gaps G12C/C118A): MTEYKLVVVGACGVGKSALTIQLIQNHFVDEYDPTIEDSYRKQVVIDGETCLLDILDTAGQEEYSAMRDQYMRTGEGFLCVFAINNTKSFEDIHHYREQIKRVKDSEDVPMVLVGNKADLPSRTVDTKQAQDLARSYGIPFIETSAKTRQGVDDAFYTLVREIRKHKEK
row,IC50 [nM],SMILES
1,10400,"C=CC(=O)N1CC2(CCN(c3nc4c(c(-c5c(C)c(Cl)cc6cnn(C)c56)c3C)COC(C)(C)C4)C2)C1 (single isomer, unassigned) [Example 14-88, (M)-1-(6-(4-(5-chloro-1,6-dimethyl-1H-indazol-7-yl)-3,7,7-trimethyl-7,8-dihydro-5H-pyrano[4,3-b]pyridin-2-yl)-2,6-diazaspiro[3.4]octan-2-yl)-2-propen-1-one]"
2,602,"C=CC(=O)N1CC2(CCN(c3nc4c(c(-c5c(C)ccc6cnn(C)c56)c3C)COC(C)(C)C4)C2)C1 (single isomer, unassigned) [Example 14-100, (M)-1-(6-(4-(1,6-dimethyl-1H-indazol-7-yl)-3,7,7-trimethyl-7,8-dihydro-5H-pyrano[4,3-b]pyridin-2-yl)-2,6-diazaspiro[3.4]octan-2-yl)-2-propen-1-one]"
3,301,"C=CC(=O)N1CC2(CCN(c3nc4c(c(-c5c(C)ccc6cnn(C)c56)c3F)COC(C)(C)C4)C2)C1 (single isomer, unassigned) [Example 14-101, (M)-1-(6-(4-(1,6-dimethyl-1H-indazol-7-yl)-3-fluoro-7,7-dimethyl-7,8-dihydro-5H-pyrano[4,3-b]pyridin-2-yl)-2,6-diazaspiro[3.4]octan-2-yl)-2-propen-1-one]"
4,55600,"C=CC(=O)N1CC2(CCN(c3nc4c(c(-c5c(C)ccc6cnn(C)c56)c3F)COC(C)(C)C4)C2)C1 (single isomer, unassigned) [Example 14-102, (P)-1-(6-(4-(1,6-dimethyl-1H-indazol-7-yl)-3-fluoro-7,7-dimethyl-7,8-dihydro-5H-pyrano[4,3-b]pyridin-2-yl)-2,6-diazaspiro[3.4]octan-2-yl)-2-propen-1-one]"
5,779,"C=CC(=O)N1CC2(CCN(c3nc4cc(-n5ccnc5C)ccc4c(-c4ccccc4Cl)c3C)[C@H]2C)C1 (single isomer, unassigned) [Example 15-5]"
6,3580,"C=CC(=O)N1CC2(CCN(c3nc4cc(-n5ccnc5C)ccc4c(-c4ccccc4Cl)c3C)[C@H]2C)C1 (single isomer, unassigned) [Example 15-6]"

# Same assay, conditions: Avg 2 h Coupled exchange IC50, 2 h compound pre-incubation, SOS-mediated nucleotide exchange
row,SMILES,IC50 [nM]
1,"C=CC(=O)N1CC2(CCN(c3cn4ccnc4c(-c4cc(O)ccc4C)c3C#N)C2)C1 [Example 1-29, 8-(5-hydroxy-2-methylphenyl)-6-(2-(2-propenoyl)-2,6-diazaspiro[3.4]octan-6-yl)imidazo[1,2-a]pyridine-7-carbonitrile]",3530
2,"C=CC(=O)N1CC2(C1)CN(c1cc3ccccc3c(-c3c(C)ccc4[nH]ncc34)c1C#N)C2 [Example 1-34, 1-(5-methyl-1H-indazol-4-yl)-3-(6-(2-propenoyl)-2,6-diazaspiro[3.3]heptan-2-yl)-2-naphthalenecarbonitrile]",823
3,"C=CC(=O)N1CC2(CCN(c3nc(-c4c(C)ccc5[nH]ncc45)c4ccc(C)cc4n3)C2)C1 [Example 1-40, 1-(6-(7-methyl-4-(5-methyl-1H-indazol-4-yl)-2-quinazolinyl)-2,6-diazaspiro[3.4]octan-2-yl)-2-propen-1-one]",9010
4,"C=C(Br)C(=O)N1CC2(CCN(c3nc4c(F)cccc4c(-c4c(C)ccc5[nH]ncc45)c3C#N)C2)C1 [Example 1-51, 2-(2-(2-bromo-2-propenoyl)-2,6-diazaspiro[3.4]octan-6-yl)-8-fluoro-4-(5-methyl-1H-indazol-4-yl)-3-quinolinecarbonitrile]",791
5,"C=CC(=O)N1CC2(CCN(c3nc4c(c(-c5ccccc5F)c3C#N)CCCC4)C2)C1 [Example 2-7, 4-(2-fluorophenyl)-2-(2-(2-propenoyl)-2,6-diazaspiro[3.4]octan-6-yl)-5,6,7,8-tetrahydro-3-quinolinecarbonitrile]",2020
6,"C=CC(=O)N1CC2(CCN(c3nc4c(c(-c5cc(O)cc(C(F)(F)F)c5F)c3C)CCC(C)(C)C4)C2)C1 [Example 2-22, 1-(6-(4-(2-fluoro-5-hydroxy-3-(trifluoromethyl)phenyl)-3,7,7-trimethyl-5,6,7,8-tetrahydro-2-quinolinyl)-2,6-diazaspiro[3.4]octan-2-yl)-2-propen-1-one]",846
7,"C=CC(=O)N1CC2(CCN(c3nc4c(c(-c5c(C)ccc6cn[nH]c56)c3C)CCC(C)(C)C4)C2)C1 [Example 2-23, 1-(6-(3,7,7-trimethyl-4-(6-methyl-1H-indazol-7-yl)-5,6,7,8-tetrahydro-2-quinolinyl)-2,6-diazaspiro[3.4]octan-2-yl)-2-propen-1-one]",735
8,"C=CC(=O)N1CC2(CCN(c3nc4c(c(-c5cc(O)cc(F)c5F)c3C)CCC(C)(C)C4)C2)C1 [Example 2-26, 1-(6-(4-(2,3-difluoro-5-hydroxyphenyl)-3,7,7-trimethyl-5,6,7,8-tetrahydro-2-quinolinyl)-2,6-diazaspiro[3.4]octan-2-yl)-2-propen-1-one]",234
9,"C=CC(=O)N1CC2(CCN(c3nc4ccccc4c(-c4c(Cl)ccc5[nH]ncc45)c3C)C2)C1 [Example 2-29, 1-(6-(4-(5-chloro-1H-indazol-4-yl)-3-methyl-2-quinolinyl)-2,6-diazaspiro[3.4]octan-2-yl)-2-propen-1-one]",903
10,"C=CC(=O)N1CC2(CCN(c3nc4c(c(-c5cccc6ccn(C)c56)c3C#N)COC(C)(C)C4)C2)C1 [Example 2-30, 7,7-dimethyl-4-(1-methyl-1H-indol-7-yl)-2-(2-(2-propenoyl)-2,6-diazaspiro[3.4]octan-6-yl)-7,8-dihydro-5H-pyrano[4,3-b]pyridine-3-carbonitrile]",750
11,"C=CC(=O)N1CC2(CCN(c3nc4c(c(-c5cc(Cl)cc6cnn(C)c56)c3C)COC(C)(C)C4)C2)C1 [Example 2-32, 1-(6-(4-(5-chloro-1-methyl-1H-indazol-7-yl)-3,7,7-trimethyl-7,8-dihydro-5H-pyrano[4,3-b]pyridin-2-yl)-2,6-diazaspiro[3.4]octan-2-yl)-2-propen-1-one]",808
12,"C=CC(=O)N1CC2(CCN(c3nc4c(c(-c5cc(O)ccc5Cl)c3C)COC(C)(C)C4)C2)C1 [Example 2-35, 1-(6-(4-(2-chloro-5-hydroxyphenyl)-3,7,7-trimethyl-7,8-dihydro-5H-pyrano[4,3-b]pyridin-2-yl)-2,6-diazaspiro[3.4]octan-2-yl)-2-propen-1-one]",186
13,"C=CC(=O)N1CC2(CCN(c3nc4c(c(-c5cc(O)ccc5C)c3C#N)C3CCC4C3)C2)C1 [Example 2-37, (1R,8S)-6-(5-hydroxy-2-methylphenyl)-4-(2-(2-propenoyl)-2,6-diazaspiro[3.4]octan-6-yl)-3-azatricyclo[6.2.1.0^2,7]undeca-2,4,6-triene-5-carbonitrile|(1S, 8R)-6-(5-hydroxy-2-methylphenyl)-4-(2-(2-propenoyl)-2,6-diazaspiro[3,4]octan-6-yl)-3-azatricyclo[6.2.1.0^2.7]undeca-2,4,6-triene-5-carbonitrile]",298

# Results, then the compound that gave them:
row,IC50 [nM],SMILES
1,113,"C=CC(=O)N1CC2(CCN(c3nc4c(c(-c5cc(O)cc6ccncc56)c3C#N)C[C@H]3C[C@@H]4C3(C)C)C2)C1 [Example 2-41, (1R,9R)-6-(6-hydroxy-8-isoquinolinyl)-10,10-dimethyl-4-(2-(2-propenoyl)-2,6-diazaspiro[3.4]octan-6-yl)-3-azatricyclo[7.1.1.0^2,7]undeca-2,4,6-triene-5-carbonitrile]"
2,193,"C=CC(=O)N1CC2(CCN(c3nc4c(c(-c5cc(O)cc6cccnc56)c3C#N)C[C@H]3C[C@@H]4C3(C)C)C2)C1 [Example 2-43, (1R,9R)-6-(6-hydroxy-8-quinolinyl)-10,10-dimethyl-4-(2-(2-propenoyl)-2,6-diazaspiro[3,4]octan-6-yl)-3-azatricyclo[7.1.1.0^2,7]undeca-2,4,6-triene-5-carbonitrile]"
3,267,"C=CC(=O)N1CC2(CCN(c3nc4cc(OC)cnc4c(-c4c(C)ccc5[nH]ncc45)c3C)C2)C1 [Example 2-51, 1-(6-(7-methoxy-3-methyl-4-(5-methyl-1H-indazol-4-yl)-1,5-naphthyridin-2-yl)-2,6-diazaspiro[3.4]octan-2-yl)-2-propen-1-one]"
4,793,"C=CC(=O)N1CC2(CCN(c3nc4c(c(-c5ccccc5Cl)c3C#N)C[C@H]3C[C@@H]4C3(C)C)C2)C1 [Example 2-63, (1R,9R)-6-(2-chlorophenyl)-10,10-dimethyl-4-(2-(2-propenoyl)-2,6-diazaspiro[3.4]octan-6-yl)-3-azatricyclo[7.1.1.0^2,7]undeca-2,4,6-triene-5-carbonitrile]"
5,735,"C=CC(=O)N1CC2(CCN(c3nc4c(c(-c5cc(CO)ccc5Cl)c3C#N)C[C@H]3C[C@@H]4C3(C)C)C2)C1 [Example 2-65, (1R,9R)-6-(2-chloro-5-(hydroxymethyl)phenyl)-10,10-dimethyl-4-(2-(2-propenoyl)-2,6-diazaspiro[3.4]octan-6-yl)-3-azatricyclo[7.1.1.0^2,7]undeca-2,4,6-triene-5-carbonitrile]"
6,1340,"C=CC(=O)N1CC2(CCN(c3nc4c(c(-c5cccc(F)c5O)c3C#N)C[C@H]3C[C@@H]4C3(C)C)C2)C1 [Example 2-70, (1R,9R)-6-(3-fluoro-2-hydroxyphenyl)-10,10-dimethyl-4-(2-(2-propenoyl)-2,6-diazaspiro[3.4]octan-6-yl)-3-azatricyclo[7.1.1.0^2,7]undeca-2,4,6-triene-5-carbonitrile]"
7,641,"C=CC(=O)N1CC2(CCN(c3nc4c(c(-c5cccc6c(O)cccc56)c3C)COC(C)(C)C4)C2)C1 [Example 2-82, 1-(6-(4-(5-hydroxy-1-naphthalenyl)-3,7,7-trimethyl-7,8-dihydro-5H-pyrano[4,3-b]pyridin-2-yl)-2,6-diazaspiro[3,4]octan-2-yl)-2-propen-1-one]"
8,6150,"C=CC(=O)N1CC2(CCN(c3nc4c(c(-c5c(C)ccc6cnn(C)c56)c3Cl)COC(C)(C)C4)C2)C1 [Example 2-86, 1-(6-(3-chloro-4-(1,6-dimethyl-1H-indazol-7-yl)-7,7-dimethyl-7,8-dihydro-5H-pyrano[4,3-b]pyridin-2-yl)-2,6-diazaspiro[3.4]octan-2-yl)-2-propen-1-one]"
